Calls of active or inactive are those of the source. The rule behind the calls is not given here.

We go through six compounds from ChEMBL document CHEMBL1158273, “New pyranocoumarins isolated from Calophyllum lanigerum and Calophyllum teysmannii” (J Nat Prod, 1996).

The test system of series [1] is Human immunodeficiency virus 1. As to the kind of experiment: Antiviral activity against HIV1 infected in human H9 cells assessed as effect on virus-induced cytopathic effect by tetrazolium/formazan assay. The format is functional, organism-based. The settings on record: for EC50: Human immunodeficiency virus 1, H9.
The next series concerns H9. As to the kind of experiment: Cytotoxicity against human H9 cells. The format is cell-based.
Series [2] in a line: Therapeutic index, ratio of IC50 for human H9 cells to EC50 for HIV1. The format is cell-based. The settings on record: read-out: Ratio IC50/EC50.

For the compound `CCCC1CC(=O)Oc2c(C(=O)C(C)C(C)O)c(O)c3c(c21)OC(C)(C)C=C3` (centres undefined) [CALANOLIDE E2], the result in series [1] was inactive. The IC50 in the series with H9 came out at 2500 nM.

As for `CCCc1cc(=O)oc2c3c(c4c(c12)OC(C)(C)C=C4)O[C@@H](C)[C@@H](C)[C@@H]3O` [CALANOLIDE F], the EC50 in series [1] was 2840 nM. Also, the IC50 in the series with H9 was determined as 12700 nM. For the same compound, the selectivity ratio in series [2] turned out to be 4.5.

`CC1CC(=O)Oc2c(C(=O)C(C)C(C)O)c(O)c3c(c21)OC(C)(C)C=C3` (centres undefined) [CORDATOLIDE E]: the outcome in series [1] was inactive. The compound also yielded an IC50 in the series with H9 of 14000 nM.

On to `CCCc1cc(=O)oc2c3c(c4c(c12)OC(C)(C)C=C4)O[C@@H](C)[C@H](C)[C@@H]3O` [COSTATOLIDE], for which the EC50 in series [1] was 220 nM. Besides, the IC50 with H9 is 9800 nM. Moreover, the selectivity ratio in series [2] amounted to 44.5.

As to `Cc1cc(=O)oc2c3c(c4c(c12)O[C@@H](C)[C@@H](C)[C@H]4O)OC(C)(C)C=C3` [PSEUDOCARDATOLIDE C], the result in series [1] was inactive. The IC50 in the series with H9 was found to be 2600 nM.

As to `C/C=C(\C)C(=O)c1c(OC)cc(OC)c2c(CCC)cc(=O)oc12`, in series [1], the outcome was inactive. In the series on H9, 1000 nM corresponded to half-maximal inhibition (IC50).
